Consider 24 compounds from US20250145633A1, “SUBSTITUTED FURANOPYRIMIDINE COMPOUNDS AS PDE1 INHIBITORS” (Dart NeuroScience, LLC, priority 2017, published 2025).

Each structure is given as a SMILES string.

One assay deals with human PDE1B enzyme (Homo sapiens (Human), UniProt Q01064). Nature of the assay: IMAP TR-FRET PDE1B enzymatic assay. The format is biochemical. As to conditions: negative log of half-maximal molar inhibitory concentration; 200 nM FAM-cAMP; values given as bins. Summed up:
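Full-length GST-tagged human PDE1B (250 pg/well) in IMAP BSA buffer with 10 U/ml calmodulin and 2.5 mM CaCl2; compound pre-incubated 5 min at room temperature, then 200 nM (final) FAM-cAMP for 30 min. IMAP binding reagent/Tb added, 1 h; TR-FRET 520/490 ratio read. IC50 from sigmoidal dose-response fit.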
Turning to `Cc1oc2ncnc(NC3(C)CC3)c2c1C(=O)NCc1ncc2c(n1)CCC2` [Example 648, N-{5H,6H,7H-Cyclopenta[d]pyrimidin-2-ylmethyl}-6-methyl-4-[(1-methylcyclopropyl)amino]furo[2,3-d]pyrimidine-5-carboxamide], the “PDE1b (pIC50)” value is more than 8.
Same read-out and setting: then `Cc1cc(C(F)(F)F)nc(CNC(=O)c2c(C)oc3ncnc(NC4(C)CC4)c23)n1` [Example 649, 6-Methyl-N-{[4-methyl-6-(trifluoromethyl)pyrimidin-2-yl]methyl}-4-[(1-methylcyclopropyl)amino]furo[2,3-d]pyrimidine-5-carboxamide], with more than 8; and `COc1cc(CNC(=O)c2c(C)oc3ncnc(NC4(C)CC4)c23)ncn1` [Example 666, N-[(6-Methoxypyrimidin-4-yl)methyl]-6-methyl-4-[(1-methylcyclopropyl)amino]furo[2,3-d]pyrimidine-5-carboxamide], with more than 8; and `COc1cc(CNC(=O)c2c(C)oc3ncnc(NC4(C)CC4)c23)nc(C)n1` [Example 667, N-[(6-Methoxy-2-methylpyrimidin-4-yl)methyl]-6-methyl-4-[(1-methylcyclopropyl)amino]furo[2,3-d]pyrimidine-5-carboxamide], with more than 8.

Still in this assay, the particulars now being: negative log of half-maximal molar inhibitory concentration; 200 nM FAM-cAMP; values given as bins; read-out: PDE1b (pIC50) (converted).
With `Cc1oc2ncnc(NC3(C)CC3)c2c1C(=O)NC1CCN(c2ccccn2)CC1` [Example 650, 6-Methyl-4-[(1-methylcyclopropyl)amino]-N-[1-(pyridin-2-yl)piperidin-4-yl]furo[2,3-d]pyrimidine-5-carboxamide], the IC50 is 10 to 100 nM.
Same read-out and setting: then `Cc1nc2cc(NC(=O)c3c(C)oc4ncnc(NC5(C)CC5)c34)ccc2o1` [Example 651, 6-Methyl-N-(2-methyl-1,3-benzoxazol-5-yl)-4-[(1-methylcyclopropyl)amino]furo[2,3-d]pyrimidine-5-carboxamide], with 10 to 100 nM.
Regarding `Cc1oc2ncnc(NC3(C)CC3)c2c1C(=O)NCc1ccncn1` [Example 652, 6-Methyl-4-[(1-methylcyclopropyl)amino]-N-(pyrimidin-4-ylmethyl)furo[2,3-d]pyrimidine-5-carboxamide], the IC50 was 10 to 100 nM.
As for `Cc1oc2ncnc(NC3(C)CC3)c2c1C(=O)NCc1ncccn1` [Example 653, 6-Methyl-4-[(1-methylcyclopropyl)amino]-N-(pyrimidin-2-ylmethyl)furo[2,3-d]pyrimidine-5-carboxamide], the IC50 is 10 to 100 nM.
On to `Cc1cc(CNC(=O)c2c(C)oc3ncnc(NC4(C)CC4)c23)ncn1` [Example 654, 6-Methyl-4-[(1-methylcyclopropyl)amino]-N-[(6-methylpyrimidin-4-yl)methyl]furo[2,3-d]pyrimidine-5-carboxamide], for which the IC50 was 10 to 100 nM.
Consider `Cc1oc2ncnc(NC3(C)CC3)c2c1C(=O)Nc1ccc(N2CCOCC2)cc1` [Example 655, 6-Methyl-4-[(1-methylcyclopropyl)amino]-N-[4-(morpholin-4-yl)phenyl]furo[2,3-d]pyrimidine-5-carboxamide], for which the IC50 is 10 to 100 nM.
With `Cc1oc2ncnc(NC3(C)CC3)c2c1C(=O)Nc1ccc(N2CCOCC2)nn1` [Example 656, 6-Methyl-4-[(1-methylcyclopropyl)amino]-N-[6-(morpholin-4-yl)pyridazin-3-yl]furo[2,3-d]pyrimidine-5-carboxamide], the IC50 was 100 to 1000 nM.
In the case of `Cc1oc2ncnc(NC3(C)CC3)c2c1C(=O)Nc1cnc(N2CCOCC2)nc1` [Example 657, 6-Methyl-4-[(1-methylcyclopropyl)amino]-N-[2-(morpholin-4-yl)pyrimidin-5-yl]furo[2,3-d]pyrimidine-5-carboxamide], the IC50 is 10 to 100 nM.
As for `Cc1oc2ncnc(NC3(C)CC3)c2c1C(=O)Nc1cnc(N2CCOCC2)cn1` [Example 658, 6-Methyl-4-[(1-methylcyclopropyl)amino]-N-[5-(morpholin-4-yl)pyrazin-2-yl]furo[2,3-d]pyrimidine-5-carboxamide], the IC50 was 10 to 100 nM.
Turning to `Cc1ncncc1CNC(=O)c1c(C)oc2ncnc(NC3(C)CC3)c12` [Example 659, 6-Methyl-4-[(1-methylcyclopropyl)amino]-N-[(4-methylpyrimidin-5-yl)methyl]furo[2,3-d]pyrimidine-5-carboxamide], the IC50 is 10 to 100 nM.
Regarding `Cc1oc2ncnc(NC3(C)CC3)c2c1C(=O)NC1CCN(c2cnccn2)CC1` [Example 660, 6-Methyl-4-[(1-methylcyclopropyl)amino]-N-[1-(pyrazin-2-yl)piperidin-4-yl]furo[2,3-d]pyrimidine-5-carboxamide], the IC50 was 10 to 100 nM.
Take `Cc1oc2ncnc(NC3(C)CC3)c2c1C(=O)NCc1cc(=O)[nH]cn1` [Example 661, 6-Methyl-4-[(1-methylcyclopropyl)amino]-N-[(6-oxo-1,6-dihydropyrimidin-4-yl)methyl]furo[2,3-d]pyrimidine-5-carboxamide]: the IC50 is 10 to 100 nM.
As for `Cc1nc(CNC(=O)c2c(C)oc3ncnc(NC4(C)CC4)c23)cc(=O)[nH]1` [Example 662, 6-Methyl-N-[(2-methyl-6-oxo-1,6-dihydropyrimidin-4-yl)methyl]-4-[(1-methylcyclopropyl)amino]furo[2,3-d]pyrimidine-5-carboxamide], the IC50 is 10 to 100 nM.
Take `COc1ncnc2c1CN(C(=O)c1c(C)oc3ncnc(NC4(C)CC4)c13)CC2` [Example 663, 5-{4-Methoxy-5H,6H,7H,8H-pyrido[4,3-d]pyrimidine-6-carbonyl}-6-methyl-N-(1-methylcyclopropyl)furo[2,3-d]pyrimidin-4-amine]: the IC50 was 100 to 1000 nM.
Consider `Cc1oc2ncnc(NC3(C)CC3)c2c1C(=O)NCc1ncc(C(C)C)o1` [Example 664, 6-Methyl-4-[(1-methylcyclopropyl)amino]-N-{[5-(propan-2-yl)-1,3-oxazol-2-yl]methyl}furo[2,3-d]pyrimidine-5-carboxamide], for which the IC50 was 10 to 100 nM.
Consider `Cc1oc2ncnc(NC3(C)CC3)c2c1C(=O)NC1CCN(c2ncccn2)CC1` [Example 665, 6-Methyl-4-[(1-methylcyclopropyl)amino]-N-[1-(pyrimidin-2-yl)piperidin-4-yl]furo[2,3-d]pyrimidine-5-carboxamide], for which the IC50 is 10 to 100 nM.
Same read-out and setting: the figure for `Cc1oc2ncnc(NC3(C)CC3)c2c1C(=O)N1CCc2cnccc2C1` [Example 668, 6-Methyl-N-(1-methylcyclopropyl)-5-(1,2,3,4-tetrahydro-2,6-naphthyridine-2-carbonyl)furo[2,3-d]pyrimidin-4-amine] is 10 to 100 nM; for `Cc1oc2ncnc(NC3(C)CC3)c2c1C(=O)NC1CCN(c2ccccn2)C1` (stereo not drawn) [Example 669, 6-Methyl-4-[(1-methylcyclopropyl)amino]-N-[1-(pyridin-2-yl)pyrrolidin-3-yl]furo[2,3-d]pyrimidine-5-carboxamide] it is 10 to 100 nM; for `Cc1nccc(N2CCC(NC(=O)c3c(C)oc4ncnc(NC5(C)CC5)c34)CC2)n1` [Example 670, 6-Methyl-4-[(1-methylcyclopropyl)amino]-N-[1-(2-methylpyrimidin-4-yl)piperidin-4-yl]furo[2,3-d]pyrimidine-5-carboxamide] it is 100 to 1000 nM.
As for `Cc1cc(N2CCC(NC(=O)c3c(C)oc4ncnc(NC5(C)CC5)c34)CC2)ncn1` [Example 671, 6-Methyl-4-[(1-methylcyclopropyl)amino]-N-[1-(6-methylpyrimidin-4-yl)piperidin-4-yl]furo[2,3-d]pyrimidine-5-carboxamide], the IC50 was 100 to 1000 nM.
